Experimental data as given in paper PMC10826971, “Evaluating protein cross-linking as a therapeutic strategy to stabilize SOD1 variants in a mouse model of familial ALS” (PLOS Biology, 2024).
“And” between values parts separate entries of the source, which are not always exact repeats. Equal entries are not always repeated.

How the values were obtained:
[1] = test system: NSC-34 cells expressing EGFP-WT-SOD1; assay: Relative cell viability of transfected NSC-34 cells; type: cell-based, mouse; conditions: for Viability %: WT, 48 h, replicates
Procedure: (§1) Transfected NSC-34 cells were plated out into 96-well plates and left overnight. […] Cells were then fixed using 4% (w/v) paraformaldehyde in 1×PBS for 20 min. Plates for imaging were then processed as previously described with some changes. Cells were imaged using a DMi8 epifluorescent microscope (Leica, Germany) fitted with a Mercury Arc Lamp, a 10× 0.25NA (CAT NO) air objective and an automated stage. A software-based autofocus strategy was utilized to focus on the GFP signal within cells, with a subsequent image being taken in the DAPI channel to view Hoescht-stained nuclei. Relative focus correction was applied between channels to offset emission wavelength effects to the focal plane. Following image acquisition, images were corrected for illumination variation via a background method and processed using a combination of FIJI [66], StarDist, CellProfiler, and CellProfiler Analyst as previously described.
(§2) Image set data taken from the previous inclusion formation assay were used to examine both relative cell viability and relative levels of SOD1-EGFP. To determine relative viability, we extracted the total number of transfected cells in each treatment group and normalized the values to the untreated group to determine the relative number of cells at assay endpoint.

[2] = test system: NSC-34 cells expressing EGFP-G93A; assay: as above; type: cell-based, mouse; conditions: for Viability %: G93A, 48 h, replicates
Procedure: as §1, §2

[3] = as above; type: cell-based, mouse; conditions: mouse, 48 h, replicates
Procedure: as §1, §2

SOD1 = target: T1, SOD1 (Homo sapiens, UniProt P00441, G94A); assay: Target engagement in blood during the survival studies; type: in vivo, mouse
T1 construct: Extraction of SOD1^G93A from red blood cell (RBC) protein was performed as previously described; tissue Jackson Laboratory 002726; host or cells: red blood cells of transgenic B6SJL-Tg(SOD1*G93A)1Gur/J mice
Excerpt: Two fALS lines were used to assess survival in genetic backgrounds with different disease severity. […] Dose and dose regimen were estimated from the blood PK/PD profile and BBB penetration described above. A subcutaneous (SC) route of administration was chosen because in our hands it results in more precise delivery. […] In both studies, mice were gender and littermate matched and non ALS-related deaths were excluded. We are currently developing the methods necessary for quantifying copy number and cannot rule out reduced SOD1 expression as having contributed to the survival benefit in treated B6 G93A mice.
The data underlying this figure can be found in S1 Data. fALS, familial amyotrophic lateral sclerosis.

SOD1^A4V = target: T2, SOD1^A4V (Homo sapiens, UniProt P00441, A5V); assay: Differential scanning fluorimetry (DSF), thermal stability; type: binding
T2 construct: made in house; host or cells: EGy118ΔSOD1 yeast, YEp351 expression vector
Procedure: (§3) To understand how cross-linking effects SOD1 stability, we quantified changes in unfolding temperature (ΔTu, hereafter thermal stability).
(§4) The effect of cross-link formation on the thermal stability of SOD1 was determined by differential scanning fluorimetry as previously described. […] After incubation, SYPRO Orange (Invitrogen Corporation, Carlsbad, California, USA), an environmentally sensitive fluorescent dye which is quenched in an aqueous environment but becomes unquenched once it binds hydrophobic residues, was added to the reaction mixture to a final concentration of 200×. The samples were then transferred to a fast optical 96-well reaction plate (Applied Biosystem, Life Technologies Corporation, Carlsbad, California, USA) and loaded on to the real-time PCR machine (Applied Biosystem, Life Technologies Corporation, Carlsbad, California, USA) after plate was spun down to eliminate bubbles. The Melt curve template in StepOne Plus software was used to set up a method. […] The final concentration of DMSO in the reaction mixture was checked as it contributes to the denaturation of proteins. Dilutions were performed accordingly to maintain the final concentration of DMSO less than 1% (vol/vol). All samples were run in technical triplicates. The background data was subtracted from the average relative fluorescence and average derivate for each temperature point, and the data were normalized before Tus were quantified by averaging the negative first derivative of relative fluorescence of all 3 runs and identifying the local minima.

SOD1^G85R = target: T3, SOD1^G85R (Homo sapiens, UniProt P00441, G86R); assay: as above; type: binding
T3 construct: made in house; host or cells: EGy118ΔSOD1 yeast, YEp351 expression vector
Procedure: as §3, §4

T3 sequence (P00441 2-154 G86R limits assumed): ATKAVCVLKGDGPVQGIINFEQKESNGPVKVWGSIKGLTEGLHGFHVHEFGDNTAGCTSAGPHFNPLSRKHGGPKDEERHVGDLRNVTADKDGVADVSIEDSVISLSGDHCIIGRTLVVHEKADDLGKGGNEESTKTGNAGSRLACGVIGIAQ
T2 sequence (P00441 2-154 A5V limits assumed): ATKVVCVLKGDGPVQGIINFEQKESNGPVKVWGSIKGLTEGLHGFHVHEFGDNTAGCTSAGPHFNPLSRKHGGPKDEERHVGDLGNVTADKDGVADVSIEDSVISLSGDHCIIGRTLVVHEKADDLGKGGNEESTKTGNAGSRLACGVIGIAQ
T1 sequence (P00441 2-154 G94A limits assumed): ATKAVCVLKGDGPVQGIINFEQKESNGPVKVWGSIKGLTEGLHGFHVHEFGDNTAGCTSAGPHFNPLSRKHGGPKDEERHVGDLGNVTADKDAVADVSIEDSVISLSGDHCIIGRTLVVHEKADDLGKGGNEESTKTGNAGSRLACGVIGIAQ

[O-][S+]1CCCCS1 (centres unmarked) [S-XL6, 1,2-dithiane-1-oxide]
viability of cells expressing EGFP-labeled wild-type SOD1 [1]: did not affect the viability
Viability % ([1]; 5 uM): 118.019% and 98.8542% and 94.2887% and 103.364% and 96.0765%
Viability % ([1]; 10 uM): 120.286% and 102.188% and 99.0654% and 102.243% and 98.2897%
Viability % ([1]; 20 uM): 91.25% and 91.5888% and 93.8838% and 89.0342%
survival/viability of cells expressing EGFP-labeled G93A [2]: did not affect
Viability % ([2]; 5 uM): 106.323% and 98.5697% and 106.015% and 108.827%
Viability % ([2]; 10 uM): 107.355% and 99.404% and 108.897% and 105.562%
Viability % ([2]; 20 uM): 94.1936% and 84.8629% and 91.604% and 88.2709%
viability at 48 h, 5 µM ([3]; NSC-34 cells expressing EGFP-G93A, G93A, 5 uM): 96%
viability at 48 h, 10 µM ([3]; NSC-34 cells expressing EGFP-G93A, G93A, 10 uM): 97.2%
viability at 48 h, 20 µM ([3]; NSC-34 cells expressing EGFP-G93A, G93A): 83%
viability at 48 h, 20 µM ([3]; NSC-34 cells expressing EGFP-WT-SOD1, WT): 109%
target engagement after initial dose (SOD1; B6SJL G93A mice, initial SC dose of 20 mg/kg): lower target engagement than expected
SOD1 engaged (on average) over time (SOD1; survival studies, 50 mg/kg SC): approximately 40%
unfolding temperature (Tu) of S-XL6 cross-linked protein (SOD1^A4V; 10-fold molar excess S-XL6, 4 h 37°C, untreated 62.9°C): 79.3 °C
Normalized ROX (SOD1^A4V; SOD1 (A4V) + S-XL6, Avg. Temp 88.559): 0.8246
Normalized ROX (SOD1^A4V; SOD1 (A4V) + S-XL6, Avg. Temp 88.8631): 0.8068
Normalized ROX (SOD1^A4V; SOD1 (A4V) + S-XL6, Avg. Temp 89.1556): 0.7806
Normalized ROX (SOD1^A4V; SOD1 (A4V) + S-XL6, Avg. Temp 89.4509): 0.7704
Normalized ROX (SOD1^A4V; SOD1 (A4V) + S-XL6, Avg. Temp 89.7543): 0.7528
Normalized ROX (SOD1^A4V; SOD1 (A4V) + S-XL6, Avg. Temp 90.0524): 0.7438
Normalized ROX (SOD1^A4V; SOD1 (A4V) + S-XL6, Avg. Temp 90.3511): 0.7281
Normalized ROX (SOD1^A4V; SOD1 (A4V) + S-XL6, Avg. Temp 90.6551): 0.7134
Normalized ROX (SOD1^A4V; SOD1 (A4V) + S-XL6, Avg. Temp 90.9595): 0.6972
Normalized ROX (SOD1^A4V; SOD1 (A4V) + S-XL6, Avg. Temp 91.2522): 0.6869
Normalized ROX (SOD1^A4V; SOD1 (A4V) + S-XL6, Avg. Temp 91.5534): 0.6765
Normalized ROX (SOD1^A4V; SOD1 (A4V) + S-XL6, Avg. Temp 91.844): 0.6607
Normalized ROX (SOD1^A4V; SOD1 (A4V) + S-XL6, Avg. Temp 92.1549): 0.6557
Normalized ROX (SOD1^A4V; SOD1 (A4V) + S-XL6, Avg. Temp 92.4505): 0.6388
Normalized ROX (SOD1^A4V; SOD1 (A4V) + S-XL6, Avg. Temp 92.7501): 0.6357
Normalized ROX (SOD1^A4V; SOD1 (A4V) + S-XL6, Avg. Temp 93.0577): 0.6246
Normalized ROX (SOD1^A4V; SOD1 (A4V) + S-XL6, Avg. Temp 93.3585): 0.6123
Normalized ROX (SOD1^A4V; SOD1 (A4V) + S-XL6, Avg. Temp 93.6532): 0.6065
Normalized ROX (SOD1^A4V; SOD1 (A4V) + S-XL6, Avg. Temp 93.9591): 0.6047
Normalized ROX (SOD1^A4V; SOD1 (A4V) + S-XL6, Avg. Temp 94.2561): 0.5946
Normalized ROX (SOD1^A4V; SOD1 (A4V) + S-XL6, Avg. Temp 94.5503): 0.5850
Normalized ROX (SOD1^A4V; SOD1 (A4V) + S-XL6, Avg. Temp 94.8582): 0.5820
unfolding temperature (Tu) of S-XL6 cross-linked protein (SOD1^G85R; 10-fold molar excess S-XL6, 4 h 37°C, untreated 40.8°C): 65.1 °C
Normalized ROX (SOD1^G85R; SOD1 G85R Protein+S-XL6, Avg. Temp 88.557): 0.19
Normalized ROX (SOD1^G85R; SOD1 G85R Protein+S-XL6, Avg. Temp 88.853): 0.18
Normalized ROX (SOD1^G85R; SOD1 G85R Protein+S-XL6, Avg. Temp 89.160): 0.17
Normalized ROX (SOD1^G85R; SOD1 G85R Protein+S-XL6, Avg. Temp 89.454): 0.17
Normalized ROX (SOD1^G85R; SOD1 G85R Protein+S-XL6, Avg. Temp 89.762): 0.16
Normalized ROX (SOD1^G85R; SOD1 G85R Protein+S-XL6, Avg. Temp 90.051): 0.15
Normalized ROX (SOD1^G85R; SOD1 G85R Protein+S-XL6, Avg. Temp 90.354): 0.15
Normalized ROX (SOD1^G85R; SOD1 G85R Protein+S-XL6, Avg. Temp 90.655): 0.14
Normalized ROX (SOD1^G85R; SOD1 G85R Protein+S-XL6, Avg. Temp 90.952): 0.13
Normalized ROX (SOD1^G85R; SOD1 G85R Protein+S-XL6, Avg. Temp 91.251): 0.13
Normalized ROX (SOD1^G85R; SOD1 G85R Protein+S-XL6, Avg. Temp 91.555): 0.12
Normalized ROX (SOD1^G85R; SOD1 G85R Protein+S-XL6, Avg. Temp 91.855): 0.11
Normalized ROX (SOD1^G85R; SOD1 G85R Protein+S-XL6, Avg. Temp 92.157): 0.11
Normalized ROX (SOD1^G85R; SOD1 G85R Protein+S-XL6, Avg. Temp 92.449): 0.10
Normalized ROX (SOD1^G85R; SOD1 G85R Protein+S-XL6, Avg. Temp 92.753): 0.10
Normalized ROX (SOD1^G85R; SOD1 G85R Protein+S-XL6, Avg. Temp 93.058): 0.09
Normalized ROX (SOD1^G85R; SOD1 G85R Protein+S-XL6, Avg. Temp 93.353): 0.09
Normalized ROX (SOD1^G85R; SOD1 G85R Protein+S-XL6, Avg. Temp 93.651): 0.08
Normalized ROX (SOD1^G85R; SOD1 G85R Protein+S-XL6, Avg. Temp 93.955): 0.0744
Normalized ROX (SOD1^G85R; SOD1 G85R Protein+S-XL6, Avg. Temp 94.247): 0.07
Normalized ROX (SOD1^G85R; SOD1 G85R Protein+S-XL6, Avg. Temp 94.552): 0.07
Normalized ROX (SOD1^G85R; SOD1 G85R Protein+S-XL6, Avg. Temp 94.853): 0.06
Normalized ROX (SOD1^G85R; SOD1 G85R Protein+S-XL6, Avg. Temp 95.157): 0.06
Normalized ROX (SOD1^G85R; SOD1 G85R Protein+S-XL6, Avg. Temp 95.458): 0.05
Normalized ROX (SOD1^G85R; SOD1 G85R Protein+S-XL6, Avg. Temp 95.752): 0.05
Normalized ROX (SOD1^G85R; SOD1 G85R Protein+S-XL6, Avg. Temp 96.054): 0.044
Normalized ROX (SOD1^G85R; SOD1 G85R Protein+S-XL6, Avg. Temp 96.360): 0.04
Normalized ROX (SOD1^G85R; SOD1 G85R Protein+S-XL6, Avg. Temp 96.652): 0.0332
Normalized ROX (SOD1^G85R; SOD1 G85R Protein+S-XL6, Avg. Temp 96.955): 0.0323
Normalized ROX (SOD1^G85R; SOD1 G85R Protein+S-XL6, Avg. Temp 97.253): 0.0276
Normalized ROX (SOD1^G85R; SOD1 G85R Protein+S-XL6, Avg. Temp 97.554): 0.0216
Normalized ROX (SOD1^G85R; SOD1 G85R Protein+S-XL6, Avg. Temp 97.851): 0.02
Normalized ROX (SOD1^G85R; SOD1 G85R Protein+S-XL6, Avg. Temp 98.161): 0.0177
Normalized ROX (SOD1^G85R; SOD1 G85R Protein+S-XL6, Avg. Temp 98.455): 0.0121
Normalized ROX (SOD1^G85R; SOD1 G85R Protein+S-XL6, Avg. Temp 98.751): 0.0106
Normalized ROX (SOD1^G85R; SOD1 G85R Protein+S-XL6, Avg. Temp 99.056): 0.00748
Normalized ROX (SOD1^G85R; SOD1 G85R Protein+S-XL6, Avg. Temp 99.359): 0.00339
Normalized ROX (SOD1^G85R; SOD1 G85R Protein+S-XL6, Avg. Temp 99.657): 0.00106
Normalized ROX (SOD1^G85R; SOD1 G85R Protein+S-XL6, Avg. Temp 99.866): 0.00
